From US20110166121A1 (LG LIFE SCIENCES LTD., priority 2008, published 2011)

Target: T1, Human P2Y12 receptor (Homo sapiens, UniProt Q9H244)
T1 construct: expressed in transfected cells; host or cells: HEK cells
Experiment: Human P2Y12 receptor cell membrane binding assay with [3H] 2-Mes-ADP
Details: 1 nM [3H] 2-Mes-ADP; for IC50: membranes of HEK cells expressing P2Y12 receptor, read-out: Binding activity (IC50); for inhibition at 30 µM: 30 μM compound
Procedure: Human P2Y12 Receptor Cell Membrane Binding Assay with [^3H] 2-Mes-ADP
Whether test compounds bind to P2Y12 receptor is measured by [3H]-2MesADP binding in HEK cells expressing P2Y12 receptor. The efficacy according to the amount of test compound can be known through the above test, competitive binding test to P2Y12 receptor, in which the binding material (2-Mes-ADP) is labeled with radioactivity isotope and then the extent of inhibition against the binding of radioactively labeled material is measured.
Preparation of P2Y12 Membrane Protein Fraction
Harvested P2Y12 cells were resuspended with Hypotonic buffer (10 mM HEPES, 10 mM NaCl, 1 mM EDTA, 1 mM EGTA pH 7.4) containing protease inhibitor cocktail. Following the incubation on ice for 15 min, cells were homogenized on ice (Glass/Teflon homogenizer; 1,000 rpm, 10 strokes). The supernant was taken from centrifugation at 500×g for 15 min and then recentrifuged the supernant at 30,000 rpm for 30 min. The membrane pellet was adjusted to 1 mg/mL concentration and stored at −80° C.
P2Y12 Receptor Cell Membrane Binding Assay with [3H] 2-Mes-ADP
The volume of 100 μL of 200 μg membrane protein was aliquoted into 96 well plate. 50 μL volume of test compounds and [^3H] 2-Mes-ADP (final: 1 nM) were added into each well. The total reaction of 0.2 ml/well was incubated for 1 hour at R.T. The reaction was terminated by filtration through GF/B filter using a 96-well cell harvester. […] Radioactivity bound to P2Y12 receptor membrane was counted in a scintillation counter. Total binding was determined with CPM of test group having no compound and non-specific binding was determined with CPM of test group containing 10 μM 2-Mes-ADP. Binding inhibition percent was calculated as follows: [100−(specific binding in the presence of test material/specific binding in the absence of test material×100)].

T1 sequence (Q9H244 whole entry): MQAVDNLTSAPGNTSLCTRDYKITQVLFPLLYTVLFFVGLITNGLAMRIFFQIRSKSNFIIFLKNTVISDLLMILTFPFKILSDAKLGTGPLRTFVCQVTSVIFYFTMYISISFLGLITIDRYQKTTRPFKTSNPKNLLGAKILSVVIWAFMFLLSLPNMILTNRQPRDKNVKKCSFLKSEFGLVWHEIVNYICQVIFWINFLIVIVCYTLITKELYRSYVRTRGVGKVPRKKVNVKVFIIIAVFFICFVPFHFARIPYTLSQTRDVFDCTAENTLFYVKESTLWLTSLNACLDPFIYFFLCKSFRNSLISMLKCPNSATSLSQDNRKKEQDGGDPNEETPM

IC50 [nM] | inhibition at 30 µM [%] | SMILES
43 |  | CCCc1cc2c(N3CCn4c(nnc4C(F)(F)F)C3)nc(N3CCc4c(nc(C)nc4C(F)(F)F)C3)nc2s1 [Example 1-80, 2-Methyl-7-[6-propyl-4-(3-trifluoromethyl-5,6-dihydro-8H-[1,2,4]triazolo[4,3-a]pyrazin-7-yl)-thieno[2,3-d]pyrimidin-2-yl]-4-trifluoromethyl-5,6,7,8-tetrahydro-pyrido[3,4-d]pyrimidine]
1930 |  | CCCc1cc2c(N3CCn4c(nnc4C(F)(F)F)C3)nc(Nc3nc(C(=O)OCC)cs3)nc2s1 [Example 1-131, 2-[6-Propyl-4-(3-trifluoromethyl-5,6-dihydro-8H-[1,2,4]triazolo[4,3-a]pyrazin-7-yl)thieno[2,3-d]pyrimidin-2-ylamino]thiazole-4-carboxylic acid ethyl ester]
1100 |  | Cc1cc2c(N3CCn4c(nnc4C(F)(F)F)C3)nc(N3CCNC(=O)C3)nc2s1 [Example 2-1, 4-[6-Methyl-4-(3-trifluoromethyl-5,6-dihydro-8H-[1,2,4]triazolo[4,3-a]pyrazin-7-yl)-thieno[2,3-d]pyrimidin-2-yl]-piperazin-2-one]
847 |  | CCc1cc2c(N3CCn4c(nnc4C(F)(F)F)C3)nc(NCC(O)CO)nc2s1 (stereo not drawn) [Example 2-3, 3-[6-Ethyl-4-(3-trifluoromethyl-5,6-dihydro-8H-[1,2,4]triazolo[4,3-a]pyrazin-7-yl)-thieno[2,3-d]pyrimidin-2-ylamino]-propane-1,2-diol]
8920 |  | CCc1cc2c(N3CCn4c(nnc4C(F)(F)F)C3)nc(N[C@@H]3C[C@H](OCCO)[C@@H](O)[C@H]3O)nc2s1 [Example 2-4, (1S,2S,3R,5S)-3-[6-Ethyl-4-(3-trifluoromethyl-5,6-dihydro-8H-[1,2,4]triazolo[4,3-a]pyrazin-7-yl)-thieno[2,3-d]pyrimidin-2-ylamino]-5-(2-hydroxy-ethoxy)-cyclopentane-1,2-diol]
2280 |  | CCc1cc2c(N3CCn4c(nnc4C(F)(F)F)C3)nc(NCCN)nc2s1 [Example 2-8, N*1*-[6-Ethyl-4-(3-trifluoromethyl-5,6-dihydro-8H-[1,2,4]triazolo[4,3-a]pyrazin-7-yl)-thieno[2,3-d]pyrimidin-2-yl]-ethane-1,2-diamine]
2170 |  | CCc1cc2c(N3CCn4c(nnc4C(F)(F)F)C3)nc(NCC(=O)O)nc2s1 [Example 2-9, [6-Ethyl-4-(3-trifluoromethyl-5,6-dihydro-8H-[1,2,4]triazolo[4,3-a]pyrazin-7-yl)-thieno[2,3-d]pyrimidin-2-ylamino]-acetic acid]
1820 |  | CC(C)c1cc2c(N3CCn4c(nnc4C(F)(F)F)C3)nc(NCCO)nc2s1 [Example 2-11, 2-[6-Isopropyl-4-(3-trifluoromethyl-5,6-dihydro-8H-[1,2,4]triazolo[4,3-a]pyrazin-7-yl)-thieno[2,3-d]pyrimidin-2-ylamino]-ethanol]
1100 |  | CC(C)c1cc2c(N3CCn4c(nnc4C(F)(F)F)C3)nc(N3CCN(C)CC3)nc2s1 [Example 2-13, 7-[6-Isopropyl-2-(4-methyl-piperazin-1-yl)-thieno[2,3-d]pyrimidin-4-yl]-3-trifluoromethyl-5,6,7,8-tetrahydro-[1,2,4]triazolo[4,3-a]pyrazine]
130 |  | CCCc1cc2c(N3CCn4c(nnc4C(F)(F)F)C3)nc(OC3Cc4ccccc4C3)nc2s1 [Example 3-22, 7-[2-(Indan-2-yloxy)-6-propyl-thieno[2,3-d]pyrimidin-4-yl]-3-trifluoromethyl-5,6,7,8-tetrahydro-[1,2,4]triazolo[4,3-a]pyrazine]
406 |  | CCc1cc2c(N3CCn4c(nnc4C(F)(F)F)C3)nc(OCC(O)CO)nc2s1 (stereo not drawn) [Example 3-49, 3-[6-Ethyl-4-(3-trifluoromethyl-5,6-dihydro-8H-[1,2,4]triazolo[4,3-a]pyrazin-7-yl)-thieno[2,3-d]pyrimidin-2-yloxy]-propane-1,2-diol]
 | 20 | CCCc1cc2c(N3CCn4c(nnc4C(F)(F)F)C3)nc(Sc3ccccc3)nc2s1 [Example 3-52, 7-(2-Phenylsulfanyl-6-propyl-thieno[2,3-d]pyrimidin-4-yl)-3-trifluoromethyl-5,6,7,8-tetrahydro-[1,2,4]triazolo[4,3-a]pyrazine]
240 |  | CCCc1cc2c(N3CCn4c(nnc4C(F)(F)F)C3)nc(C(=O)OCC)nc2s1 [Example 4-1, 6-Propyl-4-(3-trifluoromethyl-5,6-dihydro-8H-[1,2,4]triazolo[4,3-a]pyrazin-7-yl)thieno[2,3-d]pyrimidine-2-carboxylic acid ethyl ester]
3050 |  | CCCc1cc2c(N3CCn4c(nnc4C(F)(F)F)C3)nc(C(=O)O)nc2s1 [Example 4-2, 6-Propyl-4-(3-trifluoromethyl-5,6-dihydro-8H-[1,2,4]triazolo[4,3-a]pyrazin-7-yl)-thieno[2,3-d]pyrimidine-2-carboxylic acid]
1000 |  | CCc1cc2c(N3CCn4c(nnc4C(F)(F)F)C3)nc(C(=O)NCC(=O)O)nc2s1 [Example 4-4, {[6-Ethyl-4-(3-trifluoromethyl-5,6-dihydro-8H-[1,2,4]triazolo[4,3-a]pyrazin-7-yl)-thieno[2,3-d]pyrimidine-2-carbonyl]amino}acetic acid]
1580 |  | CCc1cc2c(N3CCn4c(nnc4C(F)(F)F)C3)nc(C(=O)NCCO)nc2s1 [Example 4-5, 6-Ethyl-4-(3-trifluoromethyl-5,6-dihydro-8H-[1,2,4]triazolo[4,3-a]pyrazin-7-yl)thieno[2,3-d]pyrimidine-2-carboxylic acid (2-hydroxy-ethyl)amide]
4210 |  | CCc1cc2c(N3CCn4c(nnc4C(F)(F)F)C3)nc(CN3CC[C@@H](O)C3)nc2s1 [Example 4-20, (R)-1-[6-Ethyl-4-(3-trifluoromethyl-5,6-dihydro-8H-[1,2,4]triazolo[4,3-a]pyrazin-7-yl)thieno[2,3-d]pyrimidin-2-ylmethyl]pyrrolidin-3-ol]
680 |  | CCc1nc2c(N3CCn4c(nnc4C(F)(F)F)C3)nc(N3CCNC(=O)C3)nc2s1 [Example 5-1, 4-[2-Ethyl-7-(3-trifluoromethyl-5,6-dihydro-8H-[1,2,4]triazolo[4,3-a]pyrazin-7-yl)-thiazolo[5,4-d]pyrimidin-5-yl]-piperazin-2-one]
2320 |  | CCc1nc2c(N3CCn4c(nnc4C(F)(F)F)C3)nc(NCCO)nc2s1 [Example 5-2, 2-[2-Ethyl-7-(3-trifluoromethyl-5,6-dihydro-8H-[1,2,4]triazolo[4,3-a]pyrazin-7-yl)-thiazolo[5,4-d]pyrimidin-5-ylamino]-ethanol]
1150 |  | CCc1nc2c(N3CCn4c(nnc4C(F)(F)F)C3)nc(N3CCN(C)CC3)nc2s1 [Example 5-3, 2-Ethyl-5-(4-methyl-piperazin-1-yl)-7-(3-trifluoromethyl-5,6-dihydro-8H-[1,2,4]triazolo[4,3-a]pyrazin-7-yl)-thiazolo[5,4-d]pyrimidine]
133 |  | CCc1cc2c(N3CCn4c(nnc4C(F)(F)C(F)(F)F)C3)nc(N3CCNC(=O)C3)nc2s1 [Example 6-1, 4-[6-Ethyl-4-(3-pentafluoroethyl-5,6-dihydro-8H-[1,2,4]triazolo[4,3-a]pyrazin-7-yl)-thieno[2,3-d]pyrimidin-2-yl]-piperazin-2-one]
1200 |  | CCc1cc2c(N3CCn4c(nnc4C(F)(F)C(F)(F)F)C3)nc(NCC(O)CO)nc2s1 (stereo not drawn) [Example 6-2, 3-[6-Ethyl-4-(3-pentafluoroethyl-5,6-dihydro-8H-[1,2,4]triazolo[4,3-a]pyrazin-7-yl)-thieno[2,3-d]pyrimidin-2-ylamino]-propane-1,2-diol]
7000 |  | CCc1cc2c(N3CCn4cnnc4C3)nc(N3CCNC(=O)C3)nc2s1 [Example 6-10, 4-[4-(5,6-Dihydro-8H-[1,2,4]triazolo[4,3-a]pyrazin-7-yl)-6-ethyl-thieno[2,3-d]pyrimidin-2-yl]-piperazin-2-one]
 | 39.3 | CCc1cc2c(N3CCn4cnnc4C3)nc(OCC(O)CO)nc2s1 (stereo not drawn) [Example 6-11, 3-[4-(5,6-Dihydro-8H-[1,2,4]triazolo[4,3-a]pyrazin-7-yl)-6-ethyl-thieno[2,3-d]pyrimidin-2-yloxy]-propane-1,2-diol]
1950 |  | CCc1cc2c(N3CCn4c(nnc4-c4ccccc4)C3)nc(N3CCNC(=O)C3)nc2s1 [Example 6-19, 4-[6-Ethyl-4-(3-phenyl-5,6-dihydro-8H-[1,2,4]triazolo[4,3-a]pyrazin-7-yl)-thieno[2,3-d]pyrimidin-2-yl]-piperazin-2-one]
7640 |  | CCc1cc2c(N3CCn4ccnc4C3)nc(N3CCNC(=O)C3)nc2s1 [Example 6-20, 4-[4-(5,6-Dihydro-8H-imidazo[1,2-a]pyrazin-7-yl)-6-ethyl-thieno[2,3-d]pyrimidin-2-yl]-piperazin-2-one]
14500 |  | CCc1cc2c(N3CCn4ccnc4C3)nc(OCC(O)CO)nc2s1 (stereo not drawn) [Example 6-21, 3-[4-(5,6-Dihydro-8H-imidazo[1,2-a]pyrazin-7-yl)-6-ethyl-thieno[2,3-d]pyrimidin-2-yloxy]-propane-1,2-diol]
